Data: EP0617288B1, “Long emission wavelength chemiluminescent compounds and their use in test assays” (Novartis AG, priority 1993, dated 1994)

How the values were obtained:
[1] = Light emission spectra by Fast Spectral Scanning System (FSSS); assay type: physicochemical; conditions: for emission spectrum peak: figure legends FIGS. 2A-2E, 3A-3J; for Emission Max: in 0.5 ml acetonitrile, Flashing Reagent #1 and #2, maximum could vary by 0-4 nm between determinations; for Range: spectral region with signal intensity of above 5% of peak height
Experimental: The light emission spectra of LBAC's and the reference acridinium esters were determined by a Fast Spectral Scanning System (FSSS) of Photo Research (a division of Kollmorgen Corp) of Burbank, CA, U.S.A. The experiment was carried out in a dark room. Each sample was dissolved in HPLC grade acetonitrile at the concentration of 1 mg/ml or higher and diluted with the same solvent to obtain the sample solution in the concentration specified. A typical determination utilized 10 to 100 ug of each compound, with the exception of the angular benz[a]acridinium ester (2 mg), separately or mixed together in 0.5 ml acetonitrile contained in 13 x 100 mm borosilicate test tube. The tube was placed on a tube rack raised to a proper height. The FSSS optical head was placed in front of the tube at close distance and with its lens focused on the liquid in the tube. The sample solution was first treated with 0.35 ml of the Flashing Reagent #1 (Ciba Corning Diagnostics) containing 0.1 N HNO3 and 0.1% H2O2. […] The light which was generated instantaneously following the addition of the Reagent #2 was recorded by FSSS for 4 seconds except for 2-MeO-LEAE-Imidate which was recorded for 30 seconds starting from split second before the Reagent #2 was added.
Recorded emission spectra are shown in FIGS. 2A-2E, 3A-3J, and 4A-4D. FIGS. 2A-2E and 3A-3J show individual emission spectra of chemiluminescent compounds including an acridinium ring system and compounds including a benzacridinium ring system. […] The major portions of the original constituting spectra which remained unchanged were indeed non-overlapping. These important physical characteristics fulfill the prerequisite for two or more subclasses of chemiluminescent compounds to be utilized in test assays for detecting and/or quantitating at least two substances in a test sample, and particularly to multianalyte clinical diagnostic assays.

[2] = Kinetic study on light emission (time course up to 10 seconds); assay type: physicochemical; conditions: normalized to 10 seconds
Experimental: A time course study over a period of up to 10 seconds was conducted to determine these percentages, by flashing the compounds and normalizing all the signals collected for different lengths of time to that of 10 seconds.

Row | emission spectrum peak [1] | Emission Max [1] | Range [1] | difference of the emission maxima ([1]; versus acridinium esters) | Molecule | Percent signal released over different lengths of time ([2]; 0.5 s) [%] | Percent signal released over different lengths of time ([2]; 1.0 s) [%] | Percent signal released over different lengths of time ([2]; 2.0 s) [%] | Percent signal released over different lengths of time ([2]; 4.0 s) [%] | Percent signal released over different lengths of time ([2]; 6.0 s) [%] | Percent signal released over different lengths of time ([2]; 10.0 s) [%]
1 | ≈ 440 nm | 436-440 nm | 410-530 nm | 8-14 nm | Cc1cc(C(=O)OCc2ccccc2)cc(C)c1OC(=O)c1c2ccccc2[n+](C)c2ccc3ccccc3c12 [ABAC, (4-Benzyloxycarbonyl-2,6-dimethyl)phenyl 5-methyl-benz[a]acridinium-12-carboxylate methosulfate, reference compound] | 3 | 20 | 52 | 73 | 89 | 100
2 | ≈ 508 nm | 508 nm | 470-660 nm | – | CCOc1ccc2c(C(=O)Oc3c(C)cc(C(=O)OCc4ccccc4)cc3C)c3cc4ccccc4cc3[n+](C)c2c1 [3-EtO-LEAE-Bz, (4-Benzyloxycarbonyl-2,6-dimethyl)phenyl 3-Ethoxy-5-methyl-benz[b]acridinium-12-carboxylate Fluorosulfonate] | 45 | 78 | 85 | 93 | 95 | 100
3 | ≈ 520 nm | 520 nm | 485-670 nm | – | COc1ccc(N(C(=O)c2c3ccccc3[n+](C)c3cc4ccccc4cc23)S(=O)(=O)c2cccc(C(=O)OCc3ccccc3)c2)cc1 [LEAC-Bz, N-(4-Methoxyphenyl)-N-[3-(benzyloxycarbonyl)phenylsulfonyl] 5-Methyl-benz[b]acridinium-12-carboxamide Fluorosulfonate] | 73 | 82 | 93 | 98 | 102 | 100
4 | ≈ 422 nm | 422 nm | 395-520 nm | – | COc1ccc2c(C(=O)Oc3c(C)cc(C(=O)OCc4ccccc4)cc3C)c3ccccc3[n+](C)c2c1 [3-MeO-DMAE-Bz, (4-Benzyloxycarbonyl-2,6-dimethyl)phenyl 3-Methoxy-10-methyl-acridinium-9-carboxylate Fluorosulfonate, reference compound] | 26 | 49 | 57 | 70 | 80 | 100
5 | ≈ 550 nm | 550 nm | 510-700 nm | – | COc1ccc2c(c1)c(C(=O)Oc1c(C)cc(C(=O)OCc3ccccc3)cc1C)c1cc3ccccc3cc1[n+]2C [2-MeO-LEAE-Bz, (4-Benzyloxycarbonyl-2,6-dimethyl)phenyl 2-Methoxy-5-methyl-benz[b]acridinium-12-carboxylate Fluorosulfonate] | 16 | 42 | 65 | 83 | 92 | 100
6 | ≈ 520 nm | 520 nm | 485-670 nm | – | CC(C)c1cc(C(=O)OCc2ccccc2)cc(C(C)C)c1OC(=O)c1c2ccccc2[n+](C)c2cc3ccccc3cc12 [DIP-LEAE-Bz, (4-Benzyloxycarbonyl-2,6-diisopropyl)phenyl 5-Methyl-benz[b]acridinium-12-carboxylate Fluorosulfonate] | 4 | 26 | 47 | 67 | 80 | 100
7 | ≈ 550 nm | 550 nm | 510-700 nm | – | Cc1cc(C(=O)ON2C(=O)CCC2=O)cc(C)c1OC(=O)c1c2cc(OCC[N+](C)(C)C)ccc2[n+](C)c2cc3ccccc3cc12 [2-QAE-LEAE-NHS, (2,6-Dimethyl-4-succinimidyloxycarbonyl)phenyl 5-Methyl-2-(trimethylammonium)ethoxy-benz[b]acridinium-12-carboxylate Difluorosulfonate] | 9 | 37 | 59 | 76 | 88 | 100
8 | ≈ 516 nm | 516 nm | 482-655 nm | – | Cc1cc(C(=O)OCc2ccccc2)cc(C)c1OC(=O)c1c2ccccc2[n+](CCCS(=O)(=O)[O-])c2cc3ccccc3cc12 [NSP-LEAE-Bz, (4-Benzyloxycarbonyl-2,6-dimethyl)phenyl 5-(3-Sulfopropyl)-benz[b]acridinium-12-carboxylate] | 14 | 72 | 91 | 96 | 95 | 100
9 | ≈ 520 nm | 520-524 nm | 490-670 nm | – | Cc1cc(C(=O)OCc2ccccc2)cc(C)c1OC(=O)c1c2ccccc2[n+](C)c2cc3ccccc3cc12 [LEAE-Bz, (4-Benzyloxycarbonyl-2,6-dimethyl)phenyl 5-Methyl-benz[b]acridinium-12-carboxylate Fluorosulfonate] | 27 | 71 | 88 | 97 | 98 | 100
10 | ≈ 550 nm | 550 nm | 500-710 nm | – | [2,6-Dimethyl-4-(2-methoxyiminoethyl)]phenyl 2-Methoxy-5-methyl-benz[b]acridinium-12-carboxylate Dichloride [2-MeO-LEAE-Imidate] | 6 | 23 | 40 | 59 | 76 | 100
11 | ≈ 546 nm | 546 nm | 500-700 nm | – | COc1ccc2c(c1)c(C(=O)Oc1c(C)cc(C(=O)ON3C(=O)CCC3=O)cc1C)c1cc3ccccc3cc1[n+]2CCS(=O)(=O)[O-] [2-MeO-NSE-LEAE-NHS, (2,6-Dimethyl-4-N-succinimidyloxycarbonyl)phenyl 2-Methoxy-5-(2-sulfoethyl)-benz[b]acridinium-12-carboxylate] | 22 | 58 | 79 | 90 | 96 | 100

Row | Molecule | emission spectrum peak [1] | Emission Max [1] | Range [1] | difference of the emission maxima ([1]; versus acridinium esters) | Percent signal released over different lengths of time ([2]; 0.5 s) [%] | Percent signal released over different lengths of time ([2]; 1.0 s) [%] | Percent signal released over different lengths of time ([2]; 2.0 s) [%] | Percent signal released over different lengths of time ([2]; 4.0 s) [%] | Percent signal released over different lengths of time ([2]; 6.0 s) [%] | Percent signal released over different lengths of time ([2]; 10.0 s) [%]
12 | (4-Benzyloxycarbonyl-2,6-diisopropyl)phenyl 10-Methyl-acridinium-9-carboxylate Fluorosulfonate [DIPAE-Bz, reference compound] | ≈ 428 nm | 426 nm | 405-520 nm | – | 14 | 64 | 89 | 97 | 98 | 100
